One series has as its system Staphylococcus aureus. The series can be described thus: Antibacterial activity against Staphylococcus aureus Newman after 24 hrs by broth dilution method. Type of series: functional.
Series [1] concerns the target T1, 4,4'-diapophytoene desaturase (4,4'-diaponeurosporene-forming) (Staphylococcus aureus (strain USA300), UniProt Q2FDU6).
T1 sequence (Q2FDU6 whole entry): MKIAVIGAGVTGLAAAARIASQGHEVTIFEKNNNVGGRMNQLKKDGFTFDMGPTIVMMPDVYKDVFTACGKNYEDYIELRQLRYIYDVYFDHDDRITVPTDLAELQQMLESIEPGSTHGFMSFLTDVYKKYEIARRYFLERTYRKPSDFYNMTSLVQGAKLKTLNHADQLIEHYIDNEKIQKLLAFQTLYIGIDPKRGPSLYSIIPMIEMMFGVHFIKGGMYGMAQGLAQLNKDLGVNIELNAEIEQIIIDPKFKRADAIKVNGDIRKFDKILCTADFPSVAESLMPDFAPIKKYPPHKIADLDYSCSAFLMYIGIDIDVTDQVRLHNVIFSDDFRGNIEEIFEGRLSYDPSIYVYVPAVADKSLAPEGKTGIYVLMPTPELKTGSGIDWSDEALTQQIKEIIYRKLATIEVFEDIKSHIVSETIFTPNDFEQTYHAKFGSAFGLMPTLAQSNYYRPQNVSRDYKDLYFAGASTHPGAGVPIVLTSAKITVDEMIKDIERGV
In words: Inhibition of CrtN in methicillin-resistant Staphylococcus aureus LAC USA300 assessed as reduction in staphyloxanthin levels after 48 hrs by spectrophotometric method-based pigment inhibition assay.

Series [2] in a line: Inhibition of CrtN in methicillin-resistant Staphylococcus aureus NRS271 assessed as reduction in staphyloxanthin levels after 48 hrs by spectrophotometric method-based pigment inhibition assay.
Series [3] has as its target T2, 4,4'-diapophytoene desaturase (4,4'-diaponeurosporene-forming) (Staphylococcus aureus (strain MW2), UniProt Q8NUQ6).
T2 sequence (Q8NUQ6 whole entry): T1 sequence (Q2FDU6 whole entry) with R500Q
In words: Inhibition of CrtN in methicillin-resistant Staphylococcus aureus USA400 MW2 assessed as reduction in staphyloxanthin levels after 48 hrs by spectrophotometric method-based pigment inhibition assay. The arrangement: species or system Staphylococcus aureus subsp. aureus MW2.

Series [4] deals with T3, 4,4'-diapophytoene desaturase (4,4'-diaponeurosporene-forming) (Staphylococcus aureus (strain Newman), UniProt O07855).
T3 sequence (O07855 whole entry): T1 sequence (Q2FDU6 whole entry)
In words: Inhibition of Staphylococcus aureus Newman 6His-tagged CrtN expressed in Escherichia coli BL21 (DE3)/pET28a::CrtN assessed as reduction in staphyloxanthin levels using diapophytoene as substrate after overnight incubation by spectrophotometric analysis. The arrangement: species or system Staphylococcus aureus subsp. aureus str. Newman.

The test system of the next series is Nannizzia gypsea. In words: In vitro antifungal activity against Microsporum gypseum after 7 days by serial dilution method. Particulars: 168 h. Type of series: functional.
A short description of series [5]: Aqueous solubility of compound after 24 hrs by HPLC method. Type of series: physicochemical.
The target in series [6] is T4, 4,4'-diapophytoene desaturase (4,4'-diaponeurosporene-forming) (Staphylococcus aureus (strain Mu50 / ATCC 700699), UniProt Q99R76).
T4 sequence (Q99R76 whole entry): T1 sequence (Q2FDU6 whole entry)
The series can be described thus: Inhibition of CrtN in methicillin-resistant Staphylococcus aureus Mu50 assessed as reduction in staphyloxanthin levels after 48 hrs by spectrophotometric method-based pigment inhibition assay. More on the design: species or system Staphylococcus aureus subsp. aureus Mu50.

The next series deals with Trichophyton verrucosum. In words: In vitro antifungal activity against Trichophyton verrucosum after 7 days by serial dilution method. Format: functional. The following applies: 168 h.
The next series relates to Trichophyton rubrum. The series can be described thus: In vitro antifungal activity against Trichophyton rubrum after 7 days by serial dilution method. Type of series: functional. The following applies: 168 h.
In series [7] the target is Voltage-gated inwardly rectifying potassium channel KCNH2 (Homo sapiens, UniProt Q12809). The series can be described thus: Inhibition of human ERG expressed in CHO cells at -80 mV holding potential after 3 mins by QPatch test. Type of series: cell-based. (The patch-clamp technique gives a direct electrical read-out from membranes.)
For series [8], the system named is Trichophyton mentagrophytes. In words: In vitro antifungal activity against Trichophyton mentagrophytes after 7 days by serial dilution method. Format: functional. Particulars: 168 h.
The next series has as its system Liver. The series can be described thus: In-vitro intrinsic clearance in human liver microsomes at 2 uM after 60 mins in presence of NADPH by LC-MS/MS method. Type of series: ADME, microsome. The following applies: 1 h.
Series [9] in a line: Half life in human liver microsomes at 2 uM after 60 mins in presence of NADPH by LC-MS/MS method. Format: ADME, microsome. Particulars: liver microsomes.
Series [10] in a line: Cytotoxicity against HEK293 cells after 43 hrs by Alamar blue dye-based fluorescence assay. Type of series: cell-based. The following applies: human. On the technique in general: Alamar Blue is a resazurin reagent that responds to reducing activity.
The target of series [11] is T3, 4,4'-diapophytoene desaturase (4,4'-diaponeurosporene-forming). The series can be described thus: Inhibition of CrtN in Staphylococcus aureus Newman assessed as reduction in staphyloxanthin levels after 48 hrs by spectrophotometric method-based pigment inhibition assay. More on the design: species or system Staphylococcus aureus subsp. aureus str. Newman.
In a further series the test system is HepG2. The series can be described thus: Cytotoxicity against human HepG2 cells after 43 hrs by Alamar blue dye-based fluorescence assay. Format: cell-based. Particulars: HepG2, 43 h.

The structures appear in SMILES notation. Positions count from the first letter of the chain named. Values after ≈ are worked out from the molar mass of the structure shown. Some results are limits rather than exact numbers.

Chain of Voltage-gated inwardly rectifying potassium channel KCNH2 (Q12809 whole entry): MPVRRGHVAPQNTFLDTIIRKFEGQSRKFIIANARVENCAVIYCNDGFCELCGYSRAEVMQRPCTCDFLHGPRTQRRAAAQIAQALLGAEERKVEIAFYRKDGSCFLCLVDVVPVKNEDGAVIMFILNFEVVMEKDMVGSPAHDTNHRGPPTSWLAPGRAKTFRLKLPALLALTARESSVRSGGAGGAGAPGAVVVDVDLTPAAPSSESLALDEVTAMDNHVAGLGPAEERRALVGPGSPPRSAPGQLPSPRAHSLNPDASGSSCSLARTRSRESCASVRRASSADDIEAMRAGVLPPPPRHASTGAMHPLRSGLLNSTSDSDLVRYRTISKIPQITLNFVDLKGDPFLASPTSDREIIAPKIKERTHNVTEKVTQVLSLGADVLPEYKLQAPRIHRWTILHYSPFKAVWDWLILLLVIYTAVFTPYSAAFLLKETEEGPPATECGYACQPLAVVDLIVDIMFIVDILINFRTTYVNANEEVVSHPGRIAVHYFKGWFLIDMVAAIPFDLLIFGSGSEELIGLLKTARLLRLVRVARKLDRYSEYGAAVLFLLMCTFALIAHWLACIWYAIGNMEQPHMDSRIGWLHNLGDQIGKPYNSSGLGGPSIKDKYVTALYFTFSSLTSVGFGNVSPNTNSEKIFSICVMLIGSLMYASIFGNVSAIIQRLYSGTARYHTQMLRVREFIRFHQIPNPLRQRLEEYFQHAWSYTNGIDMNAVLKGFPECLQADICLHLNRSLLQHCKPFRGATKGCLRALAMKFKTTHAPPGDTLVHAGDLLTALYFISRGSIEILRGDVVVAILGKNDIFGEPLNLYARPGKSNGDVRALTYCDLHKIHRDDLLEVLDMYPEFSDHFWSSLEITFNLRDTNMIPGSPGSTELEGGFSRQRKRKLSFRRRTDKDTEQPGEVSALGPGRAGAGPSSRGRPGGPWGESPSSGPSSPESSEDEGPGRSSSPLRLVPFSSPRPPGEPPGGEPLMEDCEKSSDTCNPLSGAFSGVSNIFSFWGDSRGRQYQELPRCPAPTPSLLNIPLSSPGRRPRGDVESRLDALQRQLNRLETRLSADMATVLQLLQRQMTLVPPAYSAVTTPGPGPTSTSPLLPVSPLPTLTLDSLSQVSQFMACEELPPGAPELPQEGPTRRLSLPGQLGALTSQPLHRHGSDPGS

Take `OO` [HYDROGEN PEROXIDE]: in the series with Staphylococcus aureus, the MIC is on record as 0.15%.
As to `CN(C/C=C/c1ccc(C(F)(F)F)cc1)Cc1cccc2ccoc12.Cl`, the IC50 was 0.0055 µM in [1]; 0.0067 µM in [2]; 0.0034 µM in series [3]; 0.3 µM in series [4]; 0.0004 µM in [6]; 3.7 µM in series [7]. Also, the MIC80 was 32 µg/mL in the series with Nannizzia gypsea, > 64 µg/mL in the series on Trichophyton verrucosum, 16 µg/mL with Trichophyton rubrum and > 64 µg/mL in [8]. This compound registered a solubility at 24 h in series [5] of 10000 µg/mL.
`CC[C@H]1OC(=O)[C@H](C)[C@@H](O[C@H]2C[C@@](C)(OC)[C@@H](O)[C@H](C)O2)[C@H](C)[C@@H](O[C@@H]2O[C@H](C)C[C@H](N(C)C)[C@H]2O)[C@](C)(O)C[C@@H](C)C(=O)[C@H](C)[C@@H](O)[C@]1(C)O` [ERYTHROMYCIN]: in the series with Staphylococcus aureus (Staphylococcus aureus, Newman, 24 h, read-out: MIC), the MIC amounted to 0.125 µg/mL (≈ 0.17 µM).
For the compound `Cc1ncc2n1-c1ccc(Cl)cc1C(c1ccccc1F)=NC2` [MIDAZOLAM], in the series on Liver, the CLH amounted to 330 µL/min/mg. The half-life at 2 µM in series [9] was found to be 4.2 min.
`CN(C/C=C/c1ccc(Br)cc1)Cc1coc2ccccc12` registered a CC50 at 43 h in series [10] of 41.9 µM. The IC50 is 0.0025 µM in series [11] and 33 µM with HepG2.
In [10], `CN(C/C=C/c1ccc(Cl)cc1)Cc1coc2ccccc12` showed a CC50 at 43 h of 42.1 µM. For the same compound, the IC50 came to 0.0049 µM in series [11] and 60.2 µM with HepG2.
In turn, `C[C@@H]1[C@H](O)[C@@H](C)/C=C/C=C/C=C/C=C/C=C/C=C/C=C/[C@H](O[C@@H]2O[C@H](C)[C@@H](O)[C@H](N)[C@@H]2O)C[C@@H]2O[C@](O)(C[C@@H](O)C[C@@H](O)[C@H](O)CC[C@@H](O)C[C@@H](O)CC(=O)O[C@H]1C)C[C@H](O)[C@H]2C(=O)O` [AMPHOTERICIN B] came in with a CC50 at 43 h in series [10] of 4.2 µM. This compound also showed an IC50 in the series with HepG2 of 3.1 µM.

As usually defined, the IC50 is the concentration that inhibits the measured activity by half. A word on the MIC80: it is an inhibitory concentration at the 80% level, which refers to growth in some studies and to a panel of isolates in others. A word on the solubility: it is the concentration that dissolves in the medium under given conditions. Read a low solubility as a poorly soluble substance. As a reminder, the half-life is the time needed for the level to fall by half in the phase considered. The term CC50 denotes the concentration that lowers cell viability or growth by half. The low end stands for harm at low concentration, the high end for better tolerance by the cells.
